Laboratory results: PubChem BioAssay (NCI)
Values joined by “and” are separate entries in the source; they are usually repeats but may differ in a detail not shown here. Equal values may be shown once.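 Grown in 96-well plates, cells were treated for 48 hours with each compound at five concentrations. Insufficient inhibition: endpoint recorded as highest concentration tested. GI50 is the concentration that inhibits growth by half. Definition used: TGI = concentration required for complete inhibition of growth.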 Where a SMILES comes first, the peptide text is derived from it. [ ]: non-standard residue; d: D form. The star is where a group is joined. NMeF = CN[CH](Cc1ccccc1)C(=O)O; NMeV = CN[CH](C(=O)O)C(C)C; Boc = CC(C)(C)OC(=O)*; OBn = c1ccc(CO*)cc1

Assays:
Assay in all cases: growth of human tumour cells (NCI), 48 h
MDA-N = system: MDA-N
NCI-H23 lung = system: NCI-H23 lung
KM12 colon = system: KM12 colon
A549 NSCLC = system: A549 NSCLC
UACC-257 melanoma = system: UACC-257 melanoma
PC-3 prostate = system: PC-3 prostate
MALME-3M melanoma = system: MALME-3M melanoma
SK-OV-3 ovarian = system: SK-OV-3 ovarian
HT29 colon = system: HT29 colon
DU-145 prostate = system: DU-145 prostate
SK-MEL-2 melanoma = system: SK-MEL-2 melanoma
M14 melanoma = system: M14 melanoma
EKVX NSCLC = system: EKVX NSCLC
TK-10 renal = system: TK-10 renal
SR leukemia = system: SR leukemia

Row | SMILES | TGI (MDA-N) [µM] | TGI (NCI-H23 lung) [µM] | TGI (KM12 colon) [µM] | TGI (A549 NSCLC) [µM] | TGI (UACC-257 melanoma) [µM] | TGI (PC-3 prostate) [µM] | TGI (MALME-3M melanoma) [µM] | TGI (SK-OV-3 ovarian) [µM] | TGI (HT29 colon) | TGI (DU-145 prostate) [µM] | TGI (SK-MEL-2 melanoma) [µM] | TGI (M14 melanoma) [µM] | TGI (EKVX NSCLC) [µM] | TGI (TK-10 renal) [µM] | TGI (SR leukemia) | GI50 (KM12 colon) | GI50 (UACC-257 melanoma) | GI50 (SK-OV-3 ovarian) [nM]
1 | CC(=O)NS(=O)(=O)c1ccc(NCc2cccc3c(=O)c4ccc(Cl)cc4oc23)cc1 | > 100 | > 71.6 | > 100 | > 100 | > 100 | > 86.2 | > 93.5 | > 100 | > 100 µM | > 100 | > 93.6 | > 100 | > 100 | > 100 | – | – | – | –
2 | Clc1sc(Cl)c2c1[C@H](Cl)C[C@@H]2Cl | 64.5 | 50 | > 100 | 86.2 | 92.9 | – | 59.6 | > 100 | > 100 µM | 96.9 | 65.9 | 37.4 | > 100 | 85.1 | > 100 µM | – | – | –
3 | C=C(C)[C@H]1CC[C@@]23O[C@@H]2[C@@H](C[C@@]2(C)CC(=O)[C@H](CC(=O)C1)O2)OC(=O)[C@@]12CC[C@H](C(=C)C)CC(=O)C[C@H]4O[C@](C)(CC4=O)C[C@@H](OC3=O)[C@@H]1O2 | > 100 | > 100 | > 100 | > 100 | > 100 | > 100 | > 100 | > 100 | > 100 µM | > 100 | > 100 | > 100 | > 100 | > 100 | – | – | – | –
4 | N#Cc1c(Cl)cc(C#N)n2c1nc1ccccc12 | 22.7 | 26.8 | 23.2 | 22.2 | 29.7 | 32.6 | 18.5 | 51.3 | 21.4 µM | 41.3 | 33 | 22.2 | 39.5 | 26.4 | – | – | – | –
5 | CNc1cc([N+](=O)[O-])ccc1C(=O)N1CCC[C@H]1CO | > 100 | – | > 100 | > 100 | > 100 | > 100 | – | > 100 | > 100 µM | > 100 | > 100 | > 100 | > 100 | > 100 | > 100 µM | – | – | –
6 | CCN(CC)C(=O)CCn1cc(F)c(=O)[nH]c1=O | – | > 100 | > 100 | > 100 | – | – | > 100 | – | > 100 µM | – | > 100 | > 100 | > 100 | > 100 | > 100 µM | – | – | –
7 | CC(C)C(NC(=O)OC(C)(C)C)C(=O)N(C)C(Cc1ccccc1)C(=O)N(C)C(C(=O)OCc1ccccc1)C(C)C (stereo not drawn) (Boc-Val-[NMeF]-[NMeV]-OBn; configuration not given here) | – | > 100 | > 100 | > 100 | > 100 | – | > 100 | > 100 | 32.3 µM and > 100 µM | – | – | > 100 | > 100 | > 100 | > 100 µM and 96.2 µM | 38.2 µM and 82.9 µM | 20.5 µM and 44.3 µM | –
8 | O=c1[nH]c2c(c(=O)[nH]1)SC(c1ccccc1)C2 (configuration not stated) | > 100 | > 100 | > 100 | > 100 | > 100 | > 100 | > 100 | – | > 100 µM | > 100 | > 100 | > 100 | > 100 | – | – | – | – | –
9 | O=C1C=C(c2ccccc2)OC1C1Sc2ccccc2NC1=O (configuration not stated) | > 100 | > 31.5 | > 100 | > 44.7 | > 24.4 | > 54.9 | > 100 | > 33.8 | > 100 µM | > 81 | > 41.1 | 35.6 | > 100 | > 27.9 | – | – | – | –
10 | C=C1CC[C@@H]2C13[C@@H]1[C@H](CC(=O)[C@@]23C)C1(C)C (some centres not stated) | – | > 100 | > 100 | > 100 | > 100 | > 100 | > 100 | > 100 | > 100 µM | > 100 | > 100 | > 100 | – | > 100 | > 100 µM | – | – | –
11 | O=C1CSC(c2ccccc2O)N1c1ccc2c(c1)Oc1c(Cl)c3c(c(Cl)c1=N2)Oc1cc(N2C(=O)CSC2c2ccccc2O)ccc1N=3 (configuration not stated) | > 100 | > 100 | > 100 | – | > 100 | > 100 | – | 71.3 | > 100 µM | > 100 | > 100 | > 100 | > 100 | > 100 | > 100 µM | – | – | –
12 | CC[C@H](C)[C@@H]([C@@H](CC(=O)N1CCC[C@H]1[C@H](OC)[C@@H](C)C(=O)NCCc1ccccc1)OC)N(C)C(=O)C(NC(=O)[C@H](C(C)C)N(C)C)C(C)C (some centres not stated) | 0.000164 | > 10 | 0.00178 | 1.1 | > 10 | – | > 10 | 3.48 | 0.00163 µM | 0.000963 | – | 0.000855 | 7.57 | > 10 | – | – | – | 0.47
13 | O=C1Nc2ccc(Br)cc2/C1=N/S(=O)(=O)O | 26.6 | > 100 | > 100 | 78.9 | 31.4 | 83.3 | 71.4 | > 100 | > 100 µM | > 100 | 22.4 | > 100 | 85.7 | 57.1 | – | – | – | –
14 | Cc1cc(C)c(NS(=O)c2cccc(C(F)(F)F)c2)c(C)c1 (configuration not stated) | > 100 | > 100 | > 100 | > 100 | > 100 | > 100 | > 100 | – | > 100 µM | > 100 | – | > 100 | – | > 100 | > 100 µM | – | – | –
15 | COc1cc(S(=O)(=O)Nc2ccc(-c3csc(N4C(=O)C(C)SC4c4cccs4)n3)cc2)ccc1Cl (configuration not stated) | – | > 100 | 23 | – | – | > 100 | > 100 | > 100 | > 100 µM | 53.1 | 22.8 | > 100 | > 100 | – | > 100 µM | – | – | –
16 | CCc1n[nH]c(=O)n1CC | > 100 | > 100 | > 100 | > 100 | > 100 | – | > 100 | > 100 | > 100 µM | > 100 | > 100 | – | > 100 | > 100 | > 100 µM | – | – | –
